Data: article PMC9460506, “Polyphenol-Rich Date Palm Fruit Seed (Phoenix Dactylifera L.) Extract Inhibits Labile Iron, Enzyme, and Cancer Cell Activities, and DNA and Protein Damage” (Nutrients, 2022)
Converted amounts (≈) assume the structure as drawn.

Tests used:
Ferritin = test: Labile iron inhibition test (iron release from ferritin by superoxide); format: biochemical
Protocol: The tested mixture was irradiated with a fluorescent lamp at room temperature for 90 min. Labile iron was measured, as noted previously.

[1] = Ferric-reducing/antioxidant power (FRAP) test; settings: tested 0.1 to 5 mg/mL
Protocol: The FRAP reagent proportions consisted of 1:1:10 (v/v/v) of TPTZ 10 mM solution in 40 mM HCl, FeCl3 20 mM, and acetate buffer pH 3.6, 0.3 M. Then, 1 mL of the tested sample was mixed with 2 mL of freshly prepared FRAP reagent. The mixtures were incubated for 30 min at 37 °C. The absorbance was conducted using a Varian CARY 50 Scan UV–VIS Spectrophotometer with a Cary 50 Microplate Reader Accessory (Varian, Inc., Walnut Creek, CA, USA), at 593 nm. Deionized water was used as a blank. FeSO4 was used for the calibration curve. The values of FRAP were expressed as µmol of Fe (II).

[2] = test system: Bovine Serum Albumin (BSA)
Protocol: Bovine Serum Albumin (BSA) was oxidized by AAPH using a method outlined earlier [18]. […] The control sample was without AAPH.
Then the mixture was loaded and separated using SDS-PAGE 10% after reduction conditions for 5 min, at 100 °C. The free stained gels’ images were taken with a ChemiDoc MV gel documentation system (Bio-Rad, Hercules, CA, USA). The band intensity determined the protein damage amount for each band using Image Lab 4.1 Software version 6.1.0 (Bio-Rad, Hercules, CA, USA).

[3] = Total antioxidant activity (TAC, phosphomolybdate); settings: tested 0.1-5 mg/mL
Protocol: In brief, 0.3 mL of a reagent composed of sodium phosphate 28 mM, sulphuric acid 0.6 M, and ammonium molybdate 4 mM were added to 0.1 mL tested samples and incubated at 95 °C for 90 min. After cooling, the mixture was measured at 695 nm using a Varian CARY 50 Scan UV–VIS Spectrophotometer with a Cary 50 Microplate Reader Accessory (Varian, Inc., Walnut Creek, CA, USA). A higher antioxidant capacity is correlated with a higher absorbance value.

[4] = Nitric oxide radical (NO) scavenging test (Griess reaction)
Protocol: In brief, 3 mL of the reaction mixture (2 mL of 10 mM sodium nitroprusside, 0.5 mL phosphate buffer saline, and 0.5 of tested samples). The mixture was incubated for 150 min at 25 °C. Then 0.5 mL of the mixture was mixed with 1 mL of (sulfanilic acid reagent: 0.33% in 20% glacial acetic acid). After 5 min, 1 mL of naphthyl ethylene diamine dihydrochloride 0.1% was added. After 30 min at room temperature, the absorbance was conducted using a Varian CARY 50 Scan UV–VIS Spectrophotometer with a Cary 50 Microplate Reader Accessory (Varian, Inc., Walnut Creek, CA, USA) at 540 nm. The nitrite percentage was determined by considering Equation 1 described above.

[5] = DPPH free radical-scavenging test; settings: tested 0.1 to 5 mg/mL
Protocol: They were determined to be effective against 1,1-diphenyl-2, picrylhydrazyl radicals. The results of the study were compared with those of a previously reported method. […] The absorbance was conducted using a Varian CARY 50 Scan UV–VIS Spectrophotometer with a Cary 50 Microplate Reader Accessory (Varian, Inc., Walnut Creek, CA, USA).

Row | Structure (SMILES) | percent inhibition of iron release from ferritin (Ferritin; at 10 μg) [%] | percent inhibition of iron release from ferritin (Ferritin; at 50 μg) [%] | percent inhibition of iron release from ferritin (Ferritin; at 100 μg) [%] | IC50, Labile Iron (Ferritin; iron release from ferritin by superoxide) [µg/mL] | Free Radical Inhibition Activity IC50, FRAP [1] [µg/mL] | IC50 [2] [µg/mL] | IC50, Total antioxidant Capacity [3] [µg/mL] | scavenging capacity for NO ([4]; 0.5 mg/mL) [%] | scavenging capacity for NO ([4]; 1 mg/mL) [%] | scavenging capacity for NO ([4]; 3 mg/mL) [%] | scavenging capacity for NO ([4]; 5 mg/mL) [%] | scavenging capacity for NO ([4]; starting value (lowest concentration)) [%] | IC50, Nitric oxide ([4]; tested 0.1 to 5 mg/mL) [µg/mL] | Free Radical Inhibition Activity IC50, DPPH [5] [µg/mL]
1 | O=C(O)c1cc(O)c(O)c(O)c1 [Gallic acid, gallic acid] | 50.68 ± 0.18 | 59.22 ± 0.81 | 68.55 ± 0.38 | 4.86 ± 0.23 (≈ 0.0286 mM) | – | – | – | – | – | – | – | – | – | –
2 | C[C@@H]1O[C@@H](OC[C@H]2O[C@@H](Oc3c(-c4ccc(O)c(O)c4)oc4cc(O)cc(O)c4c3=O)[C@H](O)[C@@H](O)[C@@H]2O)[C@H](O)[C@H](O)[C@H]1O [Rutin] | 85.32 ± 0.56 | 90.30 ± 0.01 | 96.65 ± 0.01 | – | 533 ± 22.85 | – | – | – | – | – | – | – | – | –
3 | Cc1c(C)c2c(c(C)c1O)CCC(C)(C(=O)O)O2 (centres unmarked) [Trolox] | 39.33 ± 0.54 | 84.79 ± 3.00 | 87.87 ± 1.87 | – | – | – | – | – | – | – | – | – | – | –
4 | O=C1O[C@H]([C@@H](O)CO)C(O)=C1O [VC, vitamin C] | – | – | – | – | – | < 100 | 3005.29 ± 427.80 (≈ 17.1 mM) | 40.92 | 29.57 | 55.12 | 56.55 | 59.10 | 2710 ± 65.98 (≈ 15.4 mM) | 880 ± 12.89
